In patent publication US10000498B2, “Selective proton coupled folate transporter and folate receptor, and GARFTase inhibitor compounds and methods of using the same” (Duquesne University of the Holy Spirit, priority 2008, dated 2018):
“Also recorded” adds a separate entry of the source. Like-named read-outs stand apart in the source and are kept apart here.

Tests used:
[1] = tested on: PC43-10 cells (hRFC-expressing Chinese hamster ovary); experiment: Growth inhibition of hRFC-expressing PC43-10 CHO cells; type: cell-based
[2] = tested on: RT16 cells (hFRα-expressing Chinese hamster ovary); experiment: Growth inhibition of FR-expressing RT16 CHO cells, with or without folic acid; type: cell-based; conditions: for IC50: Cricetulus griseus
[3] = tested on: KB human tumor cells (hRFC/FRα); experiment: Growth inhibition of KB human tumor cells (Cell Titer-blue cytotoxicity screen), with or without folic acid; type: cell-based; conditions: for IC50: Homo sapiens
[4] = biological target: T1, GARFTase (Homo sapiens, UniProt P22102); experiment: In situ GARFTase assay (14C-glycine incorporation into formyl glycinamide ribonucleotide); type: cell-based; conditions: mean IC50, SEM in parentheses
T1 construct: In the in situ GARFTase assay, incorporation of ^14C-glycine into formyl glycinamide ribonucleotide was measured; endogenous in cells
T1 sequence (P22102 1-1010): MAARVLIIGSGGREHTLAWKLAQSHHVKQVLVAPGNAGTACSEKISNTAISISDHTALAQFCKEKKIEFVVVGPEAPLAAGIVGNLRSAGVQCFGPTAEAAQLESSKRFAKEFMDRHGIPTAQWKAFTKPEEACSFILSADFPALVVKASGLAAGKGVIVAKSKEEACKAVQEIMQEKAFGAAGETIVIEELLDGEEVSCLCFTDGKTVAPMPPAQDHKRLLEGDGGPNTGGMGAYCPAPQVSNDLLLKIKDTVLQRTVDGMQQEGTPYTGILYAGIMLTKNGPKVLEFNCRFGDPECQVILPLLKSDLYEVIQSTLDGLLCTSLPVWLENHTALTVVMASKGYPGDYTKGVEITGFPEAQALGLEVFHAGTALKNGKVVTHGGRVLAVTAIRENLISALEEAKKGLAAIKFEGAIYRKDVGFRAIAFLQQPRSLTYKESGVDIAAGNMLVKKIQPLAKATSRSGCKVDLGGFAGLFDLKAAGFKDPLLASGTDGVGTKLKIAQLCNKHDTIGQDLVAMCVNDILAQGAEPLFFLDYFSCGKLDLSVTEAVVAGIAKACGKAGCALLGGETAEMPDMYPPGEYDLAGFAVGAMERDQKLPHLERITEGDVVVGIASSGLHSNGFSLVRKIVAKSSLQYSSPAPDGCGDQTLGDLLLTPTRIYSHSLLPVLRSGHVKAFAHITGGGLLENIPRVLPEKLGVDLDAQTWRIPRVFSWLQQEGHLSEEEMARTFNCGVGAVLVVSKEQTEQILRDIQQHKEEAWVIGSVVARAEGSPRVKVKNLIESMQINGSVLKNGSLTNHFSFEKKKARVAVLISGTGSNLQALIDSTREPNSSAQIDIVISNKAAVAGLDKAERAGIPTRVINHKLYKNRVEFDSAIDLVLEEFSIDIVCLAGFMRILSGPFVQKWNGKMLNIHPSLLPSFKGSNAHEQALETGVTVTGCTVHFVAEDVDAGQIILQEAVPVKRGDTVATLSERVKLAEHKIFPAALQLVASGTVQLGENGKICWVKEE

[5] = tested on: R2/VC cells (vector control R2 CHO); experiment: Growth inhibition of vector control R2 CHO cells (Cell TiterBlue, 96 h); type: cell-based, Chinese hamster; conditions: Cricetulus griseus, read-out: Growth inhibition 50% inhibitory concentration, R2/VC
[6] = biological target: FRα (Homo sapiens, UniProt P15328); experiment: FRα binding affinity relative to folic acid; conditions: folic acid set to 1
Chain of FRα (P15328 25-234): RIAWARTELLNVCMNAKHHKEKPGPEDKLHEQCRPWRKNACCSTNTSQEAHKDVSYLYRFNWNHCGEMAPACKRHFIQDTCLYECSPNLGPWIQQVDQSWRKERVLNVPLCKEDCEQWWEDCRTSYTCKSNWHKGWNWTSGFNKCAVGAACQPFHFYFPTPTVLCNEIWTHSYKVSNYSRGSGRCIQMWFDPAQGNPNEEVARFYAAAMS

[7] = tested on: human KB cervical tumors as xenografts; experiment: In vivo evaluation in advanced stage KB tumor xenograft; parameters: species or system SCID female mice
Procedure: SCID female mice bearing advanced stage human KB cervical tumors as xenografts (xenograft tumors) were administered compound AAG154353 of the present invention intravenously at various doses and schedules.
Mice were maintained on a Folic Acid deficient diet (Harlan-Teklad Diet #00434; Madison, Wis.) exclusively for approximately three weeks at the start of treatment. […] Thus, significant antitumor activity was detected. Toxicity as reflected in weight loss was modest.

[8] = biological target: T2, hPCFT (Homo sapiens, UniProt Q96NT5); experiment: Inhibition of [3H]MTX transport by hPCFT; type: cell-based; conditions: initial studies over a range of pH values
T2 construct: expressed in transfected cells
T2 sequence (Q96NT5 1-459): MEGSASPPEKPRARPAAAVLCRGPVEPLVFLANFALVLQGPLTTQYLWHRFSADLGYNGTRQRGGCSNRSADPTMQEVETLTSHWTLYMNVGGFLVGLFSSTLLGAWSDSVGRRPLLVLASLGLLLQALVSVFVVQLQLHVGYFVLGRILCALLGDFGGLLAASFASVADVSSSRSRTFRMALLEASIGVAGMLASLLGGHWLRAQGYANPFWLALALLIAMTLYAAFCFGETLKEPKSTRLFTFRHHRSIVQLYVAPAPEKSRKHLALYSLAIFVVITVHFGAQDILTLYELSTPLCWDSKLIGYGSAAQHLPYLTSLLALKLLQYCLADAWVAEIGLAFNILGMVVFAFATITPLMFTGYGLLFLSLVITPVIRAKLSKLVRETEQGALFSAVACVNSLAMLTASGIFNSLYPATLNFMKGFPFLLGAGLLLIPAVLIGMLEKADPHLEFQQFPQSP

[9] = tested on: KB cells; experiment: Nucleoside/AICA protection from growth inhibition in KB cells; type: cell-based, human
[10] = Q2dx4 starting day 43, 500 mg/kg total dose IV

Compound: Nc1nc2[nH]c(CCCCc3ccc(C(=O)N[C@@H](CCC(=O)O)C(=O)O)s3)cc2c(=O)[nH]1 [AAG154353, (S)-2-({5-[4-(2-amino-4-oxo-4,7-dihydro-3H-pyrrolo[2,3-d]pyrimidin-6-yl)-butyl]thiophene-2-carbonyl}-amino)-pentanedioic acid]
- Growth inhibition of hRFC-expressing PC43-10 cells (in words) [1]: Neither AAG154353 and AAG154360 showed appreciable growth inhibition; also recorded: nearly complete lack of drug activity
- IC50 ([1]; Cricetulus griseus, PC43-10, read-out: Growth inhibition (IC50, nM) hRFC PC43-10): > 1000 nM
- Growth inhibition / FR-targeted activity toward RT16 cells (in words) [2]: high level of FR-targeted activity
- IC50 ([2]; RT16, read-out: Growth inhibition (IC50, nM) hFRα RT16): 2 nM
- IC50 ([2]; RT16, read-out: Growth inhibition (IC50, nM) hFRα RT16 (+FA)): > 1000 nM
- Effect of folic acid co-treatment on growth inhibition of KB cells [3]: completely reversed growth inhibition
- IC50 ([3]; read-out: Growth inhibition (IC50, nM) hRFC/FRα KB): 0.25 nM
- IC50 ([3]; read-out: Growth inhibition (IC50, nM) hRFC/FRα KB (+FA)): > 1000 nM
- IC50 [4]: 0.63 nM
- IC50 [5]: > 1000 nM
- FRα binding affinity compared to folic acid [6]: very high binding affinities
- Tumor response of late stage KB xenografts ([7]; IV, three mice on various dose/schedules, tumors 446 to 650 mg at start, folic acid deficient diet): tumors regressed completely
- Toxicity as reflected in weight loss ([7]; IV, various dose/schedules): modest
- Tumor size [7, 10]: 63 mg
- Tumor-free status [7, 10]: tumor free up to day 60
- Time mouse tumor free ([7]; Q3dx4 starting day 37, 750 mg/kg total dose IV): 30 days
- Time mouse tumor free ([7]; Q4dx3 starting day 48, 187.5 mg/kg total dose IV): 30 days
- Increased inhibition of hPCFT transport at acid (pH<7) over neutral (pH>7) conditions [8]: 2-3 fold
- Effect of 5-amino-4-imidazolecarboxamide (AICA) on growth inhibition of KB cells ([9]; AICA 320 μM): completely protected
- Effect of adenosine on growth inhibition of KB cells ([9]; adenosine 60 μM): completely protective
- Effect of thymidine on growth inhibition of KB cells ([9]; thymidine 10 μM): did not alter the growth inhibitory effects
